How the values were obtained:
hIL-6 mRNA = assay: Quantification of hIL-6 mRNA in LPS-stimulated U937 macrophages (real-time PCR); type: cell-based, human; set-up: key: Active: an active compound is one that causes a ≧20% inhibition in IL-6 mRNA at a concentration less than or equal to 10 μM; conditions: U937 cells differentiated with PMA, 1 h pretreatment, LPS 1 μg/mL, 3 h; IL-6 mRNA normalised to hCyclophilin; compound ≤10 μM
Procedure: In this example, hIL-6 mRNA in tissue culture cells was quantitated to measure the transcriptional inhibition of hIL-6 when treated with a compound of the invention.
A human leukemic monocytic lymphoma cell line (U937) was plated (3.2×10^5 cells per well) in a 96-well plate in 100 μL RPMI 1640+10% FBS, and differentiated into macrophages with PMA (60 ng/mL) for 3 days prior to the addition of the compound of interest. The cells were pretreated for 1 h with the test compound in DMSO prior to stimulation with lipopolysaccharide from Escherichia coli at 1 μg/mL. The cells were incubated for 3 h before harvest. At the time of harvest, cells were rinsed in 200 μL PBS. Cell lysis solution (70 μL) was added the cells for 10 min, and mRNA was then prepared using the “mRNA Catcher PLUS plate” (Invitrogen), according to the protocol supplied.
(§1) The eluted mRNA isolated was then used in a one-step quantitative real-time PCR reaction, using components of the UltraSense kit together with Applied Biosystems primer-probe mixes. 10 μL of template was amplified with 1.75 μL of IL-6 primer-probe, and 1 μL of hCyclophilin primer probe, and the reaction was carried out in multiplex. Real-time PCR data was analyzed, normalizing the Ct values for hIL-6 to hCyclophilin, prior to determining the fold induction of each unknown sample, relative to the control.

hVCAM-1 mRNA = assay: Quantification of hVCAM-1 mRNA in TNF-α-stimulated HUV-EC-C cells (real-time PCR); type: cell-based, human; set-up: key: Active: an active compound is one that causes a ≧20% inhibition in VCAM-1 mRNA at a concentration less than or equal to 10 μM; conditions: 1 h pretreatment, TNF-α 10 ng/mL, 24 h, VCAM-1 mRNA normalised to hCyclophilin, compound ≤10 μM
Procedure: In this example, hVCAM-1 mRNA in tissue culture cells was quantitated to measure the transcriptional inhibition of hVCAM when treated with a compound of the invention.
A human umbilical vein endothelial cell line (HUV-EC-C) was plated in a 96-well plate (5.0×10^3 cells/well) in 100 μL EGM complete media and incubated for 24 h prior to the addition of the compound of interest. The cells were pretreated for 1 h with the test compound in DMSO prior to stimulation with tumor necrosis factor-α (10 ng/mL). The cells were incubated for an additional 24 h before harvest. At time of harvest, the cells were rinsed in 200 μL PBS, and cell lysis solution (70 μL) was then added the cells for 10 min. mRNA was then prepared using the “mRNA Catcher PLUS plate” (Invitrogen), according to the protocol supplied.
as §1, with “mRNA” for “mRNA isolated”, “hVCAM-1” for “IL-6”, “hVCAM-1” for “hIL-6”

Row | SMILES | Inhibition of IL-6 expression (hIL-6 mRNA) | Inhibition of VCAM-1 expression (hVCAM-1 mRNA)
1 | COc1cc(OCCN)cc2nc(-c3cc(C)c(O)c(C)c3)[nH]c(=O)c12 [Example 3, 7-(2-amino-ethoxy)-2-(4-hydroxy-3,5-dimethyl-phenyl)-5-methoxy-3H-quinazolin-4-one] | Active | Active
2 | COCCOc1cc(OC)c2c(=O)[nH]c(-c3cc(C)c(O)c(C)c3)nc2c1 [Example 4, 2-(4-hydroxy-3,5-dimethyl-phenyl)-5-methoxy-7-(2-methoxy-ethoxy)-3H-quinazolin-4-one] | Active | Active
3 | COc1cc(OCCOCc2ccccc2)cc2nc(-c3cc(C)c(O)c(C)c3)[nH]c(=O)c12 [Example 5, 7-(2-benzyloxy-ethoxy)-2-(4-hydroxy-3,5-dimethyl-phenyl)-5-methoxy-3H-quinazolin-4-one] | Active | Active
4 | Cc1cc(-c2nc3cc(OCCN(C)C)ccc3c(=O)[nH]2)cc(C)c1O [Example 7, 7-(2-dimethylamino-ethoxy)-2-(4-hydroxy-3,5-dimethylphenyl)-3H-quinazolin-4-one] | Active | Active
5 | Cc1cc(-c2nc3ccc(Nc4ccccn4)cc3c(=O)[nH]2)cc(C)c1O [Example 9, 2-(4-hydroxy-3,5-dimethyl-phenyl)-6-(pyridin-2-ylamino)-3H-quinazolin-4-one] | Active | Active
6 | Cc1cc(-c2nc3ccc(CN4CCN(C)CC4)cc3c(=O)[nH]2)cc(C)c1O [Example 10, 2-(4-hydroxy-3,5-dimethylphenyl)-6-((4-methylpiperazin-1-yl)methyl)quinazolin-4(3H)-one] | Active | Active
7 | Cc1cc(-c2nc3cc(F)cc(F)c3c(=O)[nH]2)cc(C)c1OCCO [Example 15, 5,7-difluoro-2-(4-(2-hydroxyethoxy)-3,5-dimethylphenyl)quinazolin-4(3H)-one] | Active | Inactive
8 | Cc1cc(-c2nc3ccc(CN4CCOCC4)cc3c(=O)[nH]2)cc(C)c1OCCO [Example 17, 2-[4-(2-hydroxyethoxy)-3,5-dimethyl-phenyl]-6-morpholin-4-ylmethyl-3H-quinazolin-4-one] | Active | Inactive
9 | COc1cc(OC)c2c(=O)[nH]c(-c3cc(C)c(OCC(O)CO)c(C)c3)nc2c1 (stereo not drawn) [Example 18, 2-[4-(2,3-Dihydroxy-propoxy)-3,5-dimethyl-phenyl]-5,7-dimethoxy-3H-quinazolin-4-one] | Active | Active
10 | COc1cc(OC)c2c(=O)[nH]c(-c3ccc(OCCO)cc3)nc2c1 [Example 20, 2-[4-(2-hydroxy-ethoxy)-phenyl]-5,7-dimethoxy-3H-quinazolin-4-one] | Active | Active
11 | COc1cc(OC)c2c(=O)[nH]c(-c3ccc(OCCO)c4ccccc34)nc2c1 [Example 21, 2-[4-(2-hydroxy-ethoxy)-naphthalen-1-yl]-5,7-dimethoxy-3H-quinazolin-4-one] | Active | Inactive
12 | COc1cc(OC)c2c(=O)[nH]c(-c3ccc4oc(CO)cc4c3)nc2c1 [Example 22, 2-(2-hydroxymethyl-benzofuran-5-yl)-5,7-dimethoxy-3H-quinazolin-4-one] | Active | Active
13 | COc1cc(OCCOCc2ccccc2)cc2nc(-c3cc(C)c(OCCO)c(C)c3)[nH]c(=O)c12 [Example 23, 7-(2-benzyloxy-ethoxy)-2-[4-(2-hydroxy-ethoxy)-3,5-dimethyl-phenyl]-5-methoxy-3H-quinazolin-4-one] | Active | Active
14 | CNC(=O)COc1c(C)cc(-c2nc3cc(OC)cc(OC)c3c(=O)[nH]2)cc1C [Example 25, 2-[4-(5,7-dimethoxy-4-oxo-3,4-dihydro-quinazolin-2-yl)-2,6-dimethyl-phenoxy]-N-methyl-acetamide] | Active | Active
15 | COc1ccc(NC(=O)COc2c(C)cc(-c3nc4cc(OC)cc(OC)c4c(=O)[nH]3)cc2C)cc1 [Example 26, 2-[4-(5,7-Dimethoxy-4-oxo-3,4-dihydro-quinazolin-2-yl)-2,6-dimethyl-phenoxy]-N-(4-methoxy-phenyl)-acetamide] | Active | Active
16 | COc1cc(OC)c2c(=O)[nH]c(-c3cc(C)c(OCCCCO)c(C)c3)nc2c1 [Example 28, 2-[4-(4-hydroxy-butoxy)-3,5-dimethyl-phenyl]-5,7-dimethoxy-3H-quinazolin-4-one] | Active | Active
17 | Cc1cc(-c2nc3cc(Cl)ccc3c(=O)[nH]2)cc(C)c1OCCO [Example 29, 7-chloro-2-(4-(2-hydroxyethoxy)-3,5-dimethylphenyl)quinazolin-4(3H)-one] | Active | Active
18 | Cc1cc(-c2nc3c(Cl)cccc3c(=O)[nH]2)cc(C)c1OCCO [Example 30, 8-chloro-2-(4-(2-hydroxyethoxy)-3,5-dimethylphenyl)quinazolin-4(3H)-one] | Active | Inactive
19 | COc1cccc2c(=O)[nH]c(-c3cc(C)c(OCCO)c(C)c3)nc12 [Example 31, 2-(4-(2-hydroxyethoxy)-3,5-dimethylphenyl)-8-methoxyquinazolin-4(3H)-one] | Active | Active
20 | Cc1cc(-c2nc3cccc(Cl)c3c(=O)[nH]2)cc(C)c1OCCO [Example 32, 5-chloro-2-(4-(2-hydroxyethoxy)-3,5-dimethylphenyl)quinazolin-4(3H)-one] | Active | Active
21 | COc1ccc2c(=O)[nH]c(-c3cc(C)c(OCCO)c(C)c3)nc2c1 [Example 33, 2-(4-(2-hydroxyethoxy)-3,5-dimethylphenyl)-7-methoxyquinazolin-4(3H)-one] | Active | Active
22 | Cc1cc(-c2nc3ccc(CN4CCN(C)CC4)cc3c(=O)[nH]2)cc(C)c1OCCO [Example 34, 2-(4-(2-hydroxyethoxy)-3,5-dimethylphenyl)-6-((4-methylpiperazin-1-yl)methyl)quinazolin-4(3H)-one] | Active | Active
23 | COc1cc(OC)c2c(=O)[nH]c(-c3ccc(OCCNc4nnc(-c5ccccc5)[nH]4)c(C)c3)nc2c1 [Example 35, 5,7-Dimethoxy-2-{3-methyl-4-[2-(5-phenyl-4H-[1,2,4]triazol-3-ylamino)-ethoxy]-phenyl}-3H-quinazolin-4-one] | Active | Active
24 | COc1cc(OC)c2c(=O)[nH]c(-c3cc(C)c(OCCNc4nc(C)no4)c(C)c3)nc2c1 [Example 36, 2-{3,5-Dimethyl-4-[2-(3-methyl-[1,2,4]oxadiazol-5-ylamino)-ethoxy]-phenyl}-5,7-dimethoxy-3H-quinazolin-4-one] | Active | Active
